Assay results from ChEMBL document CHEMBL1150147, “Bioactive natural products from a sclerotium-colonizing isolate of Humicola fuscoatra” (2002).

Test system: Aspergillus flavus
Experiment: Antifungal activity against Aspergillus flavus at 200 ug/disk by disk assay
Assay type: functional
Conditions: read-out: IZ

For `CC(=O)O[C@@H]1C[C@]2(C)C3=C(CC[C@H]2C(C)(C)[C@@H]1O[C@@H]1O[C@H](CO)[C@@H](O)[C@H](O)[C@H]1O)[C@@]1(C)CC[C@](C)([C@H](C)C(C)C)[C@@H](C(=O)O)[C@]1(C)CC3` [FUSCOATROSIDE], the zone of inhibition at 200 µg/disc was 18 mm.
